In PubChem BioAssay AID248 (DTP/NCI, 2004):
Inconclusive results and toxic doses are left out. Cut-off read from the data, not from the text of the source: active = T/C of 150% or more; inactive = T/C below 125%.

Tested on: L1210 leukemia ip in BDF1 mice, survival T/C
Experiment: NCI In Vivo Anticancer Drug Screen. Data for tumor model L1210 Leukemia (intraperitoneal) in B6D2F1 (BDF1) mice
Settings: endpoint: mean survival time, higher = longer survival
Summary of the method: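 Transplanted-tumor mice were given test agent; controls received vehicle only. Survival readings from the two groups were divided (treated over control).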

Measured: T/C

O=[N+]([O-])c1cccc(OCCCCBr)c1
inactive: dose: 100.0 mg/kg/injection, schedule: Q04DX003 (ip), vehicle: other 97 % of control | dose: 200.0 mg/kg/injection, schedule: Q04DX003 (ip), vehicle: other 110 % of control | dose: 400.0 mg/kg/injection, schedule: Q04DX003 (ip), vehicle: other 102 % of control

CC(=O)Nc1cc(C(C)=O)ccc1O
inactive: dose: 100.0 mg/kg/injection, schedule: Q04DX003 (ip), vehicle: Klucel (hydroxypropylcellulose) (HPC) 106 % of control | dose: 200.0 mg/kg/injection, schedule: Q04DX003 (ip), vehicle: Klucel (hydroxypropylcellulose) (HPC) 98 % of control | dose: 400.0 mg/kg/injection, schedule: Q04DX003 (ip), vehicle: Klucel (hydroxypropylcellulose) (HPC) 103 % of control

C=C1C(=O)OC2C1C1CC1(C)C1CC(OC(C)=O)C(C)C21O (stereo not given)
inactive: dose: 50.0 mg/kg/injection, schedule: Q01DX001 (ip), vehicle: water 103 % of control | dose: 100.0 mg/kg/injection, schedule: Q01DX001 (ip), vehicle: water 92 % of control | dose: 200.0 mg/kg/injection, schedule: Q01DX001 (ip), vehicle: water 103 % of control

CCCCOB1OC(C)CC(C)(C)O1 (stereo not given)
inactive: dose: 100.0 mg/kg/injection, schedule: Q01DX001 (ip), vehicle: saline 106 % of control | dose: 200.0 mg/kg/injection, schedule: Q01DX001 (ip), vehicle: saline 97 % of control | dose: 400.0 mg/kg/injection, schedule: Q01DX001 (ip), vehicle: saline 99 % of control

O=[N+]([O-])c1ccccc1S/N=C/c1ccccc1O
inactive: dose: 100.0 mg/kg/injection, schedule: Q04DX002 (ip), vehicle: Klucel (hydroxypropylcellulose) (HPC) 94 % of control | dose: 200.0 mg/kg/injection, schedule: Q04DX002 (ip), vehicle: Klucel (hydroxypropylcellulose) (HPC) 94 % of control | dose: 400.0 mg/kg/injection, schedule: Q04DX002 (ip), vehicle: Klucel (hydroxypropylcellulose) (HPC) 105 % of control
